Format in all cases: cell-based
The test system of assay [1] is S. pneumoniae. Description: MIC by agar plate dilution against clinical isolates of S. pneumoniae. As to conditions: 3 strains (clinical isolates), Iso-Sensitest agar, 18 to 24 hr, 35° C. The method, then:
(§1) Minimal Inhibitory concentrations (MIC) of inhibitors against clinical isolates of S. pneumoniae, H. influenzae and M. catarrhalis obtained from the Public Health and Clinical Microbiology Laboratory, Addenbrooke's Hospital, Hills Road, Cambridge CB2 2QW, UK, were determined by a standard agar plate dilution method following recommendations in British Society for Antimicrobial Chemotherapy Working Party. 1991 “A guide to sensitivity testing British Society for Antimicrobial Chemomtherapy, London, United Kingdom”. Briefly Iso-Sensitest agar (pH 7.2: Oxoid, United Kingdom) was employed supplemented with 5% horse blood (Oxoid) and 20 μg of NAD (Sigma) per ml to support growth of fastidious bacteria. The inoculum used was approximately 10^4 colony forming units of each isolate contained in a volume of 1 μl. Plate were incubated 18 to 24 hr in air, -or for fastidious bacteria an atmosphere enriched with 4-6% carbon dioxide at 35° C. The MIC was determined as the lowest concentration of an antimicrobial tested that inhibited growth of the inoculum, disregarding a single persisting colony or faint haze caused by the inoculation.
(§2) The compounds of the Examples were are antibacterially active in the above assays, The following table states the MIC ranges of the tested compounds against 3 strains of S. pneumoniae, 2 strains of H. influenzae and 1 strain of M. catarrhalis.

Assay [2] deals with H. influenzae. As to the kind of experiment: MIC by agar plate dilution against clinical isolates of H. influenzae. As to conditions: Haemophilus influenzae, 2 strains (clinical isolates), Iso-Sensitest agar, 18 to 24 hr, 35° C., read-out: MIC range H. influenzae. The method, then:
as §1, §2

Assay [3] deals with M. catarrhalis. As to the kind of experiment: MIC by agar plate dilution against clinical isolate of M. catarrhalis. As to conditions: Moraxella catarrhalis, 1 strain (clinical isolate), Iso-Sensitest agar, 18 to 24 hr, 35° C. The method, then: as §1, §2

In brackets after ≈: the same amount, converted by molar mass.

For the compound `CC(C)N(CC(=O)N1CCCC1)NC(=O)[C@H](CC1CCCC1)CN(O)C=O` [Example 2], in assay [1], the “MIC range S. pneumoniae” value lay in the range of 4 to 16 µg/mL. The MIC is 8 µg/mL (≈ 20.9 µM) in assay [2] and 0.5 µg/mL (≈ 1.31 µM) in assay [3].
As to `CC(C)N(CC(=O)N(C)C)NC(=O)[C@H](CC1CCCC1)CN(O)C=O` [Example 3, 2-{N′-[(2R)-Cyclopentylmethyl-3-(formyl-hydroxy-amino)-propionyl]-N-isopropyl-hydrazino}-N,N-dimethyl-acetamide], the figures for the MIC in assay [2] and in assay [3] were 0.5 to 1 µg/mL (≈ 1.4 to 2.81 µM) and 0.5 µg/mL (≈ 1.4 µM), respectively.
Consider `COc1cc2c(cc1OC)CN(C(=O)CN(NC(=O)[C@H](CC1CCCC1)CN(O)C=O)C(C)C)CC2` [Example 4, N-{3-Cyclopentyl-(2R)-[N′-[2-(6,7-dimethoxy-3,4-dihydro-1H-isoquinolin-2-yl)-2-oxo-ethyl]-N′-isopropyl-hydrazinocarbonyl}-propyl)-N-hydroxy-formamide], for which the “MIC range S. pneumoniae” value in assay [1] fell in the range of 1 to 2 µg/mL. Further, the MIC is 32 µg/mL (≈ 63.4 µM) in assay [2] and 0.5 µg/mL (≈ 0.991 µM) in assay [3].
The matching figures for `CC(C)N(CC(=O)N1CCN(Cc2ccc3c(c2)OCO3)CC1)NC(=O)[C@H](CC1CCCC1)CN(O)C=O` [Example 5, N-(2-{N′-[(2R)-(4-Benzo[1,3]dioxol-5-ylmethyl-piperazin-1-yl)-2-oxo-ethyl]-N′-isopropyl-hydrazinocarbonyl}-3-cyclopentylpropyl)-N-hydroxy formamide]: 1 to 4 µg/mL, greater than 32 µg/mL and 1 µg/mL (≈ 1.88 µM).
On to `CC(C)N(CC(=O)Nc1cccnc1)NC(=O)[C@H](CC1CCCC1)CN(O)C=O` [Example 6], for which the results for the MIC in assay [2] and in assay [3] were 32 µg/mL (≈ 78.9 µM) and 2 µg/mL (≈ 4.93 µM), respectively.
For the compound `CC(C)N(CC(=O)Nc1nccs1)NC(=O)[C@H](CC1CCCC1)CN(O)C=O` [Example 7, 2-{N′-[(2R)-Cyclopentylmethyl-3-(formyl-hydroxy-amino)-propionyl]-N-isopropyl-hydrazino}-N-thiazol-2-yl-acetamide], the “MIC range S. pneumoniae” value in assay [1] was in the range of 16 to 32 µg/mL. The MIC in assay [2] was 16 to 32 µg/mL (≈ 38.9 to 77.8 µM); in assay [3], 2 µg/mL (≈ 4.86 µM).
Turning to `Cc1coc(NC(=O)CN(NC(=O)[C@H](CC2CCCC2)CN(O)C=O)C(C)C)n1` [Example 8, 2-{N′-[(2R)-Cyclopentylmethyl-3-(formyl-hydroxy-amino)-propionyl]-N-isopropyl-hydrazino}-N-(4-methyl-oxazol-2-yl)-acetamide], in assay [1], the “MIC range S. pneumoniae” value is 8 to 16 µg/mL. In assay [3], this compound displayed an MIC of 2 µg/mL (≈ 4.88 µM).
Consider `Cc1csc(NC(=O)CN(NC(=O)[C@H](CC2CCCC2)CN(O)C=O)C(C)C)n1` [Example 9, 2-{N′-[(2R)-Cyclopentylmethyl-3-(formyl-hydroxy-amino)-propionyl]-N-isopropyl-hydrazino}-N-(4-methyl-thiazol-2-yl)-acetamide], for which the “MIC range S. pneumoniae” value in assay [1] is 16 to 32 µg/mL. Moreover, the MIC is greater than 32 µg/mL in assay [2] and 2 µg/mL (≈ 4.7 µM) in assay [3].
Turning to `CC(C)N(CC(=O)Nc1nc2ccccc2s1)NC(=O)[C@H](CC1CCCC1)CN(O)C=O` [Example 10, N-Benzothiazol-2-yl-2-{N′-[(2R)-cyclopentylmethyl-3-(formyl-hydroxy-amino)-propionyl]-N-isopropyl-hydrazino)acetamide], the “MIC range S. pneumoniae” value in assay [1] lay in the range of 1 to 4 µg/mL. Besides, the MIC in assay [2] is greater than 32 µg/mL; in assay [3] it was 2 µg/mL (≈ 4.33 µM).
